# Results published in the OligoGym collection.
# HELM strings list units from the 5' end as sugar, base in round brackets, then linkage (d deoxyribose, r ribose, m 2'-O-methyl, p phosphodiester). Strings are as the collection lists them; they lack the last nucleoside at the 3' end of the tested compound. [moe] = 2'-O-(2-methoxyethyl) (MOE); [sp] = phosphorothioate linkage; [m5C] = 5-methylcytosine
# Molecular target: GFAP
# Experiment: mouse, dose not given
# Conditions: ASO
row,Substance,3 h FOB score [score 0-7]
1,RNA1{[moe]([m5C])[sp].[moe](G)p.[moe]([m5C])p.[moe](A)p.[moe](G)[sp].d([m5C])[sp].d(A)[sp].d(T)[sp].d(T)[sp].d(T)[sp].d(G)[sp].d(T)[sp].d([m5C])[sp].d(T)[sp].d(T)[sp].[moe](T)p.[moe](A)p.[moe](T)[sp].[moe](T)}$$$$ (last 3' nucleoside missing),5
2,RNA1{[moe]([m5C])[sp].[moe](G)p.[moe](T)p.[moe]([m5C])p.d(A)[sp].d([m5C])[sp].d(A)[sp].d(T)[sp].d(T)[sp].d([m5C])[sp].d(A)[sp].d([m5C])[sp].d(T)[sp].d(A)[sp].[moe](A)p.[moe](T)p.[moe](A)p.[moe](T)[sp].[moe](T)}$$$$ (last 3' nucleoside missing),0
3,RNA1{[moe](T)[sp].[moe](G)p.[moe](G)p.[moe]([m5C])p.[moe](A)[sp].d(G)[sp].d(T)[sp].d(A)[sp].d(T)[sp].d(T)[sp].d(A)[sp].d([m5C])[sp].d([m5C])[sp].d(T)[sp].d([m5C])[sp].[moe](T)p.[moe](A)p.[moe]([m5C])[sp].[moe](T)}$$$$ (last 3' nucleoside missing),1
4,RNA1{[moe](G)[sp].[moe]([m5C])p.[moe](T)p.[moe](T)p.[moe](T)[sp].d(T)[sp].d(G)[sp].d(A)[sp].d(G)[sp].d(A)[sp].d(T)[sp].d(A)[sp].d(T)[sp].[moe]([m5C])p.[moe](T)p.[moe](T)[sp].[moe](G)}$$$$ (last 3' nucleoside missing),3
5,RNA1{[moe](G)[sp].[moe](T)p.[moe](G)p.[moe]([m5C])p.[moe](T)[sp].d(G)[sp].d(A)[sp].d(G)[sp].d(A)[sp].d(A)[sp].d(T)[sp].d([m5C])[sp].d(A)[sp].d(A)[sp].d(G)[sp].[moe]([m5C])p.[moe](T)p.[moe]([m5C])[sp].[moe]([m5C])}$$$$ (last 3' nucleoside missing),0
6,RNA1{[moe](T)[sp].[moe](T)p.[moe](T)p.[moe](G)p.[moe](T)[sp].d([m5C])[sp].d(T)[sp].d(T)[sp].d(T)[sp].d(A)[sp].d(T)[sp].d(T)[sp].d(T)[sp].d(T)[sp].d(T)[sp].[moe]([m5C])p.[moe]([m5C])p.[moe](T)[sp].[moe]([m5C])}$$$$ (last 3' nucleoside missing),0
7,RNA1{[moe](A)[sp].[moe](T)p.[moe](T)p.[moe](T)p.[moe](A)[sp].d(A)[sp].d([m5C])[sp].d(A)[sp].d(T)[sp].d(T)[sp].d(A)[sp].d(A)[sp].d(G)[sp].d(A)[sp].d(G)[sp].[moe]([m5C])p.[moe](A)p.[moe](G)[sp].[moe](G)}$$$$ (last 3' nucleoside missing),4
8,RNA1{[moe]([m5C])[sp].[moe](A)p.[moe](G)p.[moe]([m5C])p.d(A)[sp].d(T)[sp].d(T)[sp].d(T)[sp].d(G)[sp].d(T)[sp].d([m5C])[sp].d(T)[sp].d(T)[sp].d(T)[sp].[moe](A)p.[moe](T)p.[moe](T)p.[moe](T)[sp].[moe](T)}$$$$ (last 3' nucleoside missing),2
9,RNA1{[moe]([m5C])[sp].[moe](A)p.[moe](G)p.[moe](G)p.[moe](G)[sp].d([m5C])[sp].d(T)[sp].d(A)[sp].d([m5C])[sp].d([m5C])[sp].d(T)[sp].d(T)[sp].d(G)[sp].d(T)[sp].d([m5C])[sp].[moe](T)p.[moe](G)p.[moe](T)[sp].[moe](G)}$$$$ (last 3' nucleoside missing),6
10,RNA1{[moe]([m5C])[sp].[moe]([m5C])p.[moe]([m5C])p.[moe](T)p.[moe]([m5C])[sp].d(T)[sp].d(T)[sp].d([m5C])[sp].d([m5C])[sp].d(T)[sp].d([m5C])[sp].d([m5C])[sp].d(A)[sp].d(G)[sp].d([m5C])[sp].[moe]([m5C])p.[moe](G)p.[moe]([m5C])[sp].[moe](G)}$$$$ (last 3' nucleoside missing),5
